{"source": "patent US4421760A", "about": "“β-Lactam antibiotic, its preparation and use” (Beecham Group Limited, priority 1980, dated 1983)", "key": {"[1]": {"test_system": "Bacillus subtilis A", "assay": "Antibacterial activity, microtitre method", "type": "cell-based", "text": "(§1) The antibacterial activity of the preparation of MM 27696 described in the example has been determined by the microtitre method and is reported in The Table.\n(§2) Antibacterial Activity of MM 27696 sodium salt determined\n(§3) by the Microtitre Method"}, "[2]": {"test_system": "Citrobacter freundii E8", "assay": "Antibacterial activity, microtitre method", "type": "cell-based", "text": "as §1, §2, §3"}, "[3]": {"test_system": "E. coli ESS", "assay": "Antibacterial activity, microtitre method", "type": "cell-based", "conditions": "Escherichia coli", "text": "as §1, §2, §3"}, "[4]": {"test_system": "Enterobacter cloacae N1", "assay": "Antibacterial activity, microtitre method", "type": "cell-based", "text": "as §1, §2, §3"}, "[5]": {"test_system": "Escherichia coli 0111", "assay": "Antibacterial activity, microtitre method", "type": "cell-based", "text": "as §1, §2, §3"}, "[6]": {"test_system": "Escherichia coli JT 39", "assay": "Antibacterial activity, microtitre method", "type": "cell-based", "conditions": "JT39", "text": "as §1, §2, §3"}, "[7]": {"test_system": "Klebsiella aerogenes A", "assay": "Antibacterial activity, microtitre method", "type": "cell-based", "text": "as §1, §2, §3"}, "[8]": {"test_system": "Proteus mirabilis C977", "assay": "Antibacterial activity, microtitre method", "type": "cell-based", "text": "as §1, §2, §3"}, "[9]": {"test_system": "Proteus morganii I580", "assay": "Antibacterial activity, microtitre method", "type": "cell-based", "conditions": "Morganella morganii", "text": "as §1, §2, §3"}, "[10]": {"test_system": "Proteus rettgeri WM16", "assay": "Antibacterial activity, microtitre method", "type": "cell-based", "conditions": "Providencia rettgeri", "text": "as §1, §2, §3"}, "[11]": {"test_system": "Proteus vulgaris W091", "assay": "Antibacterial activity, microtitre method", "type": "cell-based", "text": "as §1, §2, §3"}, "[12]": {"test_system": "Pseudomonas aeruginosa A", "assay": "Antibacterial activity, microtitre method", "type": "cell-based", "text": "as §1, §2, §3"}, "[13]": {"test_system": "Salmonella typhimurium CT10", "assay": "Antibacterial activity, microtitre method", "type": "cell-based", "conditions": "Salmonella enterica", "text": "as §1, §2, §3"}, "[14]": {"test_system": "Serratia marcescens US20", "assay": "Antibacterial activity, microtitre method", "type": "cell-based", "text": "as §1, §2, §3"}, "[15]": {"test_system": "Shigella sonnei MB 11967", "assay": "Antibacterial activity, microtitre method", "type": "cell-based", "conditions": "MB11967", "text": "as §1, §2, §3"}, "[16]": {"test_system": "Staphylococcus aureus 1517", "assay": "Antibacterial activity, microtitre method", "type": "cell-based", "text": "as §1, §2, §3"}, "[17]": {"test_system": "Staphylococcus aureus Oxford", "assay": "Antibacterial activity, microtitre method", "type": "cell-based", "text": "as §1, §2, §3"}, "[18]": {"test_system": "Staphylococcus aureus Russell", "assay": "Antibacterial activity, microtitre method", "type": "cell-based", "text": "as §1, §2, §3"}, "[19]": {"test_system": "Streptococcus faecalis I", "assay": "Antibacterial activity, microtitre method", "type": "cell-based", "conditions": "Enterococcus faecalis", "text": "as §1, §2, §3"}, "[20]": {"test_system": "Streptococcus pneumoniae CN33", "assay": "Antibacterial activity, microtitre method", "type": "cell-based", "text": "as §1, §2, §3"}, "[21]": {"test_system": "Streptococcus pyogenes CN10", "assay": "Antibacterial activity, microtitre method", "type": "cell-based", "text": "as §1, §2, §3"}, "[22]": {"molecular_target": "E. coli JT4 β-Lactamase (Escherichia coli, UniProt P62593)", "sequence (P62593 24-286 limits assumed)": "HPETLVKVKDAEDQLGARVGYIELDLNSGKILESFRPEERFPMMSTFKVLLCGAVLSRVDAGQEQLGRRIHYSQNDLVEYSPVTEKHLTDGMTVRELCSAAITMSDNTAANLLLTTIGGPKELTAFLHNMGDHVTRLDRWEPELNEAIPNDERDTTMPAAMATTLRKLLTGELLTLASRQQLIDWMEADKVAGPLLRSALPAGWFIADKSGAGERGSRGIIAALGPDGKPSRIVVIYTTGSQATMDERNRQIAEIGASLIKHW", "assay": "β-Lactamase inhibitory activity", "type": "biochemical", "conditions": "read-out: β-Lactamase Inhibitory Activity I50 (converted)", "protocol": "(§4) β-Lactamase Inhibitory Activity of MM 27696 sodium salt\n(§5) b = without preincubation"}, "[23]": {"molecular_target": "Enterobacter cloacae P99 β-Lactamase (Enterobacter cloacae, UniProt P05364)", "sequence (P05364 21-381)": "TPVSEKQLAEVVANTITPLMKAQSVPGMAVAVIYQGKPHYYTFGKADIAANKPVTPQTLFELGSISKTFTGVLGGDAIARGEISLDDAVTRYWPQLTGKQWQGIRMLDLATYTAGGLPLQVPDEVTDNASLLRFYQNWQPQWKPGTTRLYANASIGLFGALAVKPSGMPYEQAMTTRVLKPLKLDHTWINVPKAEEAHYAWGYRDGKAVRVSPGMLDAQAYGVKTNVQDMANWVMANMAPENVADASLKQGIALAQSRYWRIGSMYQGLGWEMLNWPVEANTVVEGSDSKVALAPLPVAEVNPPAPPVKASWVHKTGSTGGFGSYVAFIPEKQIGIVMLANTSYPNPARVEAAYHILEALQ", "assay": "β-Lactamase inhibitory activity", "type": "biochemical", "conditions": "read-out: β-Lactamase Inhibitory Activity I50 (converted)", "protocol": "as §4, §5"}, "[24]": {"molecular_target": "Klebsiella aerogenes E70 β-Lactamase", "assay": "β-Lactamase inhibitory activity", "type": "biochemical", "protocol": "as §4, §5"}, "[25]": {"molecular_target": "S. aureus Russell β-Lactamase (Staphylococcus aureus, UniProt P00807)", "sequence (P00807 25-281)": "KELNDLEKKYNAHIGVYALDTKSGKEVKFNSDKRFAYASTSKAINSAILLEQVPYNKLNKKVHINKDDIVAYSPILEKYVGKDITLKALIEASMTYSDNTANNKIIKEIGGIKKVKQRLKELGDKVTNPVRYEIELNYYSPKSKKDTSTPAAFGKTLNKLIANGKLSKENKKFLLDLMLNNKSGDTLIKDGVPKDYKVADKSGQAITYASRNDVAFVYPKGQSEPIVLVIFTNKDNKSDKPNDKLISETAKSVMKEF", "assay": "β-Lactamase inhibitory activity", "type": "biochemical", "conditions": "read-out: β-Lactamase Inhibitory Activity I50 (converted)", "protocol": "as §4, §5"}}, "note": "Like-named read-outs stand apart in the source and are kept apart here.", "data": [{"smiles": "CCC(=O)N/C=C/SC1=C(C(=O)O)N2C(=O)[C@@H]([C@H](C)OS(=O)(=O)O)[C@H]2C1", "note": "[MM 27696]", "values": [{"measurement": "MIC", "setting": "[1]", "result": "< 0.1", "unit": "µg/mL"}, {"measurement": "MIC", "setting": "[2]", "result": 3.1, "unit": "µg/mL"}, {"measurement": "MIC", "setting": "[3]", "result": "< 0.1", "unit": "µg/mL"}, {"measurement": "MIC", "setting": "[4]", "result": 0.2, "unit": "µg/mL"}, {"measurement": "MIC", "setting": "[5]", "result": 0.8, "unit": "µg/mL"}, {"measurement": "MIC", "setting": "[6]", "result": 0.2, "unit": "µg/mL"}, {"measurement": "MIC", "setting": "[7]", "result": 0.4, "unit": "µg/mL"}, {"measurement": "MIC", "setting": "[8]", "result": "< 0.1", "unit": "µg/mL"}, {"measurement": "MIC", "setting": "[9]", "result": 0.2, "unit": "µg/mL"}, {"measurement": "MIC", "setting": "[10]", "result": 0.4, "unit": "µg/mL"}, {"measurement": "MIC", "setting": "[11]", "result": 0.4, "unit": "µg/mL"}, {"measurement": "MIC", "setting": "[12]", "result": 50, "unit": "µg/mL"}, {"measurement": "MIC", "setting": "[13]", "result": 0.2, "unit": "µg/mL"}, {"measurement": "MIC", "setting": "[14]", "result": 6.2, "unit": "µg/mL"}, {"measurement": "MIC", "setting": "[15]", "result": "< 0.1", "unit": "µg/mL"}, {"measurement": "MIC", "setting": "[16]", "result": 100, "unit": "µg/mL"}, {"measurement": "MIC", "setting": "[17]", "result": 0.4, "unit": "µg/mL"}, {"measurement": "MIC", "setting": "[18]", "result": 0.8, "unit": "µg/mL"}, {"measurement": "MIC", "setting": "[19]", "result": 12.5, "unit": "µg/mL"}, {"measurement": "MIC", "setting": "[20]", "result": "< 0.1", "unit": "µg/mL"}, {"measurement": "MIC", "setting": "[21]", "result": "< 0.1", "unit": "µg/mL"}, {"measurement": "IC50", "setting": "[22]; a = with preincubation", "result": 24.6, "unit": "nM"}, {"measurement": "IC50", "setting": "[22]; b = without preincubation", "result": 984, "unit": "nM"}, {"measurement": "IC50", "setting": "[23]; a = with preincubation", "result": 4.92, "unit": "nM"}, {"measurement": "IC50", "setting": "[23]; b = without preincubation", "result": 615, "unit": "nM"}, {"measurement": "β-Lactamase Inhibitory Activity I50", "setting": "[24]; a = with preincubation", "result": 0.003, "unit": "µg/mL"}, {"measurement": "β-Lactamase Inhibitory Activity I50", "setting": "[24]; b = without preincubation", "result": 0.4, "unit": "µg/mL"}, {"measurement": "IC50", "setting": "[25]; a = with preincubation", "result": 73.8, "unit": "nM"}, {"measurement": "IC50", "setting": "[25]; b = without preincubation", "result": "> 123000", "unit": "nM"}]}]}
